Entries after “also recorded” stand apart in the source; their conditions may differ.
What was measured:
[1] = test system: KCNQ (Kv7) potassium channels; assay: Prepulse inhibition (PPI) of the startle response, acute PCP model of schizophrenia; type: in vivo, rats; details: for effect on deficits in prepulse inhibition produced by phencyclidine (summary statement): phencyclidine administration in laboratory rodents, no dose stated
Text: The startle response is produced by delivery of a sudden and intense sensory stimulus pulse (120 db sound) and can be inhibited by exposure to a weaker prepulse (62, 66, or 75 db) which is slightly above the background noise level (60 db). […] PPI has been used as a measure of sensory information processing in rodents and humans. […] A cocktail mixture of XE991 and PCP dissolved in saline was used in these studies. N=38 rats per treatment. *p<0.05 vs. Sal/Sal; +p<0.05 vs. Sal/PCP.
(§1) Drugs. All drugs were purchased from commercial sources and dissolved in saline. […] All drug doses were nmol per side and were injected bilaterally into the specified brain region.

[2] = test system: KCNQ (Kv7) potassium channels; assay: Social interaction behavior, acute PCP model of schizophrenia; type: in vivo, rats; details: phencyclidine administration in laboratory rodents; no dose stated
Text: (§2) Social interaction deficit is considered to be a negative symptom of schizophrenia and can be induced in rodents by acute PCP or Ketamine administration and can be reversed by antipsychotics. […] A cocktail mixture of XE991 and PCP dissolved in saline was used in these studies. *p<0.05 vs. Sal/Sal; +p<0.05 vs. Sal/PCP; N=25-42 rats per treatment.
as §2, with “DMP543” for “XE991”, “40% DMSO” for “saline”, “N=10-28” for “N=25-42”, “treatment. […]” for “treatment.”

[3] = test system: KCNQ potassium channels in prefrontal cortex; assay: Forced delayed alternation task in a T-maze (working memory), acute PCP model, brain microinfusion; type: in vivo, rats; details: for effect on deficits in forced delayed alternation task performance in a T-maze produced by phencyclidine (summary statement): phencyclidine administration in laboratory rodents, no dose stated
Description: This experimental paradigm involves the working memory, a prefrontal cortex dependent task, and is used to examine attention and memory function. This study was conducted to determine the role of KCNQ channels in PFC in regulation of memory.
Microinjection and Behavioral Experiments. Stainless Steel cannulae were implanted bilaterally 1 mm above nucleus accumbens or implanted in prefrontal cortex. Rats were permitted a minimum of 7 days recovery from surgery. Drugs were injected using an injection needle that extended 1 mm beyond the tip of the guide cannulae. […] In experiments where two drugs were delivered into accumbens, the microinjections were separated by 15 minutes. Behavioral activity then was monitored as discussed in the Results.
as §1

[4] = test system: KCNQ (Kv7) potassium channels; assay: Social interaction behavior, acute PCP model of schizophrenia; type: in vivo, rats; details: for effect of channel blocker alone on level of social interaction: 15 minutes before social interaction arena; for reversal of PCP-induced social interaction deficit: p<0.05 vs. Sal/PCP
[5] = test system: KCNQ channel; details: comparative statement among the DuPont channel blockers; cited from earlier work
[6] = comparative statement among the DuPont channel blockers; cited from earlier work

SMILES: O=C1c2ccccc2C(Cc2ccnc(F)c2)(Cc2ccnc(F)c2)c2ccccc21 [DMP543, 10,10-bis(2-fluoro-4-pyridinylmethyl)-9(10H)-anthracenone]
- effect on deficits in prepulse inhibition produced by phencyclidine (summary statement) [1]: attenuate or fully reverse
- effect on deficits in social interaction produced by phencyclidine (summary statement) [2]: attenuate or fully reverse
- effect on deficits in forced delayed alternation task performance in a T-maze produced by phencyclidine (summary statement) [3]: attenuate or fully reverse
- effect of channel blocker alone on level of social interaction ([4]; DMP543 0.15 mg/kg s.c. alone): did not significantly modulate
- reversal of PCP-induced social interaction deficit ([4]; DMP543 0.15 mg/kg s.c. co-administered with PCP 1.5 mg/kg s.c. (cocktail in 40% DMSO)): significantly reversed the deficit
- reversal of PCP-induced social interaction deficit ([4]; DMP543 0.15 mg/kg s.c. co-administered with PCP 1.5 mg/kg s.c. (cocktail in 40% DMSO), listed as DM543): reversed
- potency at KCNQ channel [5]: higher potency
- serum half-life [6]: higher serum half-life

SMILES: O=C1N(c2ccccc2)c2ccccc2C1(Cc1ccncc1)Cc1ccncc1 [Linopirdine, 3,3-bis(4-pyridinylmethyl)-1-phenylindolin-2-one]
- effect on deficits in prepulse inhibition produced by phencyclidine (summary statement) [1]: attenuate or fully reverse
- effect on deficits in social interaction produced by phencyclidine (summary statement) [2]: attenuate or fully reverse

SMILES: c1ccc(C2(N3CCCCC3)CCCCC2)cc1 [PCP, phencyclidine]
- effect of PCP alone on prepulse inhibition ([1]; PCP 1.5 mg/kg s.c., all three prepulses, p<0.05 vs. Sal/Sal): reduced the prepulse inhibition at all three prepulses; also recorded: disrupts the prepulse inhibition
- effect of PCP alone on working memory ([3]; PCP 3.0 mg/kg s.c. one hour before behavioral testing, trained rats, p<0.05 vs. Sal/Sal): robust and reproducible disruption of working memory
- effect of PCP alone on social interaction time ([4]; PCP 1.5 mg/kg s.c., 15 minutes before testing, p<0.05 vs. Sal/Sal): significant reduction in social interaction time

SMILES: O=C1c2ccccc2C(Cc2ccncc2)(Cc2ccncc2)c2ccccc21 [XE991, 10,10-bis(4-pyridinylmethyl)-9(101-1)-anthracenone]
- effect of channel blocker alone on prepulse inhibition ([1]; XE991 0.5 mg/kg s.c. alone, 10 minutes before startle chamber, prepulses 62, 66, 75 db): did not show any disruption of the prepulse inhibition
- reversal of PCP-induced deficits in PPI ([1]; XE991 0.5 mg/kg s.c. with PCP 1.5 mg/kg s.c. (cocktail in saline), 66 db prepulse, p<0.05 vs. Sal/PCP): reversed the PCP-induced deficits in PPI
- effect on deficits in prepulse inhibition produced by phencyclidine (summary statement) [1]: attenuate or fully reverse
- effect on deficits in social interaction produced by phencyclidine (summary statement) [2]: attenuate or fully reverse
- effect of channel blocker alone on memory and performance in delayed alternation task ([3]; XE991 60 nmol/1 ul/1 min, acute bilateral infusion into prefrontal cortex, alone): did not disrupt the memory and performance
- reversal of PCP-induced working memory deficits ([3]; XE991 60 nmol/1 μl/1 min microinfusion into PFC 5 minutes before PCP 3.0 mg/kg s.c., p<0.05 vs. Sal/PCP): reversed the PCP-induced memory deficits
- effect on PCP-mediated working memory disruption ([3]; XE991 microinjected in the nucleus accumbens (data not shown)): no effect
- effect on deficits in forced delayed alternation task performance in a T-maze produced by phencyclidine (summary statement) [3]: attenuate or fully reverse
- effect of channel blocker alone on level of social interaction ([4]; XE991 0.5 mg/kg s.c. alone): did not significantly modulate
- reversal of PCP-induced social interaction deficit ([4]; XE991 0.5 mg/kg s.c. co-administered with PCP 1.5 mg/kg s.c. (cocktail in saline)): reversed the deficit
